From patent US8802597B2, “Herbicidal pyrimidines” (E I du Pont de Nemours and Company, priority 2003, dated 2014)

What was measured:
Type in all cases: in vivo
[1] = tested on: spanishneedles (Bidens bipinnata); test: Test G pre/postemergence; conditions: Preemergence
Outline: (§1)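 Test chemicals in a non-phytotoxic solvent blend with surfactant are applied to soil after seeding or to foliage of 2–18 cm seedlings. Greenhouse response is scored visually at 12–21 days on a 0 to 100 control scale.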

[2] = tested on: Canada horseweed (Conyza canadensis); test: Test G pre/postemergence; conditions: Preemergence
Outline: as §1

kochia (Kochia scoparia) = test: Test D pre/postemergence; conditions: scale 0 to 100 (100 = complete control)
Outline: (§2)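 Responses are visual ratings on a 0 to 100 scale, with 100 meaning complete control, taken 15 to 25 days after treatment in a controlled growth environment. Applications were pre- and postemergence (1- to 4-leaf plants) using a non-phytotoxic solvent formulation with surfactant.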

[3] = tested on: pigweed (Amaranthus retroflexus); test: Test D pre/postemergence; conditions: scale 0 to 100 (100 = complete control)
Outline: as §2

[4] = tested on: wheat (Triticum aestivum); test: Test D pre/postemergence; conditions: scale 0 to 100 (100 = complete control)
Outline: as §2

[5] = tested on: lambsquarters (Chenopodium album); test: Test D pre/postemergence; conditions: scale 0 to 100 (100 = complete control)
Outline: as §2

[6] = tested on: wild buckwheat (Polygonum convolvulus); test: Test D pre/postemergence; conditions: scale 0 to 100 (100 = complete control)
Outline: as §2

SMILES: COC(=O)c1nc(C2CC2)nc(N)c1Cl [Compound 9, methyl 6-amino-5-chloro-2-cyclopropyl-4-pyrimidinecarboxylate]
- Plant response rating, Spanishneedles ([1]; 62 g ai/ha, scale 0-100): 100
- Plant response rating, Spanishneedles ([1]; 125 g ai/ha, scale 0-100): 100
- Plant response rating, Spanishneedles ([1]; 250 g ai/ha, scale 0-100): 100
- Plant response rating, Spanishneedles ([1]; 500 g ai/ha, scale 0 to 100): 100
- Plant response rating, Horseweed ([2]; 62 g ai/ha, scale 0-100): 100
- Plant response rating, Horseweed ([2]; 125 g ai/ha, scale 0-100): 100
- Plant response rating, Horseweed ([2]; 250 g ai/ha, scale 0-100): 100
- Plant response rating, Horseweed ([2]; 500 g ai/ha, scale 0 to 100): 100
- Plant response rating, Kochia (kochia (Kochia scoparia); Postemergence, 16 g ai/ha): 85
- Plant response rating, Kochia (kochia (Kochia scoparia); Postemergence, 31 g ai/ha): 100
- Plant response rating, Kochia (kochia (Kochia scoparia); Postemergence, 62 g ai/ha): 100
- Plant response rating, Kochia (kochia (Kochia scoparia); Postemergence, 125 g ai/ha): 100
- Plant response rating, Kochia (kochia (Kochia scoparia); Preemergence, 16 g ai/ha): 70
- Plant response rating, Kochia (kochia (Kochia scoparia); Preemergence, 31 g ai/ha): 98
- Plant response rating, Kochia (kochia (Kochia scoparia); Preemergence, 62 g ai/ha): 100
- Plant response rating, Kochia (kochia (Kochia scoparia); Preemergence, 125 g ai/ha): 100
- Plant response rating, Pigweed ([3]; Postemergence, 16 g ai/ha): 65
- Plant response rating, Pigweed ([3]; Postemergence, 31 g ai/ha): 100
- Plant response rating, Pigweed ([3]; Postemergence, 62 g ai/ha): 100
- Plant response rating, Pigweed ([3]; Postemergence, 125 g ai/ha): 100
- Plant response rating, Pigweed ([3]; Preemergence, 16 g ai/ha): 65
- Plant response rating, Pigweed ([3]; Preemergence, 31 g ai/ha): 80
- Plant response rating, Pigweed ([3]; Preemergence, 62 g ai/ha): 100
- Plant response rating, Pigweed ([3]; Preemergence, 125 g ai/ha): 100
- Plant response rating, Wheat ([4]; Postemergence, 16 g ai/ha): 50
- Plant response rating, Wheat ([4]; Postemergence, 31 g ai/ha): 80
- Plant response rating, Wheat ([4]; Postemergence, 62 g ai/ha): 90
- Plant response rating, Wheat ([4]; Postemergence, 125 g ai/ha): 100
- Plant response rating, Wheat ([4]; Preemergence, 16 g ai/ha): 60
- Plant response rating, Wheat ([4]; Preemergence, 31 g ai/ha): 75
- Plant response rating, Wheat ([4]; Preemergence, 62 g ai/ha): 75
- Plant response rating, Lambsquarters ([5]; Postemergence, 16 g ai/ha): 95
- Plant response rating, Lambsquarters ([5]; Postemergence, 31 g ai/ha): 100
- Plant response rating, Lambsquarters ([5]; Postemergence, 62 g ai/ha): 100
- Plant response rating, Lambsquarters ([5]; Postemergence, 125 g ai/ha): 100
- Plant response rating, Lambsquarters ([5]; Preemergence, 16 g ai/ha): 65
- Plant response rating, Lambsquarters ([5]; Preemergence, 31 g ai/ha): 100
- Plant response rating, Lambsquarters ([5]; Preemergence, 62 g ai/ha): 100
- Plant response rating, Lambsquarters ([5]; Preemergence, 125 g ai/ha): 100
- Plant response rating, Buckwheat, Wild ([6]; Postemergence, 16 g ai/ha): 65
- Plant response rating, Buckwheat, Wild ([6]; Postemergence, 31 g ai/ha): 80
- Plant response rating, Buckwheat, Wild ([6]; Postemergence, 62 g ai/ha): 100
- Plant response rating, Buckwheat, Wild ([6]; Postemergence, 125 g ai/ha): 100
- Plant response rating, Buckwheat, Wild ([6]; Preemergence, 16 g ai/ha): 60
- Plant response rating, Buckwheat, Wild ([6]; Preemergence, 31 g ai/ha): 85
- Plant response rating, Buckwheat, Wild ([6]; Preemergence, 62 g ai/ha): 100
- Plant response rating, Buckwheat, Wild ([6]; Preemergence, 125 g ai/ha): 100

SMILES: CCOC(=O)C(OC(C)=O)c1nc(C2CC2)nc(N)c1Br (stereo not drawn) [Compound 47]
- Plant response rating, Kochia (kochia (Kochia scoparia); Postemergence, 31 g ai/ha): 45
- Plant response rating, Kochia (kochia (Kochia scoparia); Postemergence, 62 g ai/ha): 50
- Plant response rating, Kochia (kochia (Kochia scoparia); Postemergence, 125 g ai/ha): 65
- Plant response rating, Kochia (kochia (Kochia scoparia); Postemergence, 250 g ai/ha): 75
- Plant response rating, Pigweed ([3]; Postemergence, 31 g ai/ha): 35
- Plant response rating, Pigweed ([3]; Postemergence, 62 g ai/ha): 50
- Plant response rating, Pigweed ([3]; Postemergence, 125 g ai/ha): 55
- Plant response rating, Pigweed ([3]; Postemergence, 250 g ai/ha): 65
- Plant response rating, Wheat ([4]; Postemergence, 31 g ai/ha): 30
- Plant response rating, Wheat ([4]; Postemergence, 62 g ai/ha): 35
- Plant response rating, Wheat ([4]; Postemergence, 125 g ai/ha): 35
- Plant response rating, Wheat ([4]; Postemergence, 250 g ai/ha): 45
- Plant response rating, Lambsquarters ([5]; Postemergence, 31 g ai/ha): 35
- Plant response rating, Lambsquarters ([5]; Postemergence, 62 g ai/ha): 35
- Plant response rating, Lambsquarters ([5]; Postemergence, 125 g ai/ha): 40
- Plant response rating, Lambsquarters ([5]; Postemergence, 250 g ai/ha): 45
- Plant response rating, Buckwheat, Wild ([6]; Postemergence, 31 g ai/ha): 60
- Plant response rating, Buckwheat, Wild ([6]; Postemergence, 62 g ai/ha): 65
- Plant response rating, Buckwheat, Wild ([6]; Postemergence, 125 g ai/ha): 65
- Plant response rating, Buckwheat, Wild ([6]; Postemergence, 250 g ai/ha): 70

SMILES: COC(=O)c1nc(C2CC2C)nc(N)c1Br (stereo not drawn) [Compound 28]
- Plant response rating, Kochia (kochia (Kochia scoparia); Postemergence, 62 g ai/ha): 70
- Plant response rating, Kochia (kochia (Kochia scoparia); Postemergence, 125 g ai/ha): 75
- Plant response rating, Kochia (kochia (Kochia scoparia); Postemergence, 250 g ai/ha): 75
- Plant response rating, Kochia (kochia (Kochia scoparia); Preemergence, 62 g ai/ha): 45
- Plant response rating, Kochia (kochia (Kochia scoparia); Preemergence, 125 g ai/ha): 80
- Plant response rating, Kochia (kochia (Kochia scoparia); Preemergence, 250 g ai/ha): 100
- Plant response rating, Pigweed ([3]; Postemergence, 62 g ai/ha): 60
- Plant response rating, Pigweed ([3]; Postemergence, 125 g ai/ha): 60
- Plant response rating, Pigweed ([3]; Postemergence, 250 g ai/ha): 70
- Plant response rating, Pigweed ([3]; Preemergence, 62 g ai/ha): 45
- Plant response rating, Pigweed ([3]; Preemergence, 250 g ai/ha): 80
- Plant response rating, Wheat ([4]; Postemergence, 62 g ai/ha): 20
- Plant response rating, Wheat ([4]; Postemergence, 125 g ai/ha): 35
- Plant response rating, Wheat ([4]; Postemergence, 250 g ai/ha): 35
- Plant response rating, Wheat ([4]; Preemergence, 62 g ai/ha): 20
- Plant response rating, Wheat ([4]; Preemergence, 125 g ai/ha): 35
- Plant response rating, Wheat ([4]; Preemergence, 250 g ai/ha): 35
- Plant response rating, Lambsquarters ([5]; Postemergence, 62 g ai/ha): 65
- Plant response rating, Lambsquarters ([5]; Postemergence, 125 g ai/ha): 70
- Plant response rating, Lambsquarters ([5]; Postemergence, 250 g ai/ha): 75
- Plant response rating, Lambsquarters ([5]; Preemergence, 62 g ai/ha): 60
- Plant response rating, Lambsquarters ([5]; Preemergence, 125 g ai/ha): 60
- Plant response rating, Lambsquarters ([5]; Preemergence, 250 g ai/ha): 60
- Plant response rating, Buckwheat, Wild ([6]; Postemergence, 62 g ai/ha): 35
- Plant response rating, Buckwheat, Wild ([6]; Postemergence, 125 g ai/ha): 55
- Plant response rating, Buckwheat, Wild ([6]; Postemergence, 250 g ai/ha): 60
- Plant response rating, Buckwheat, Wild ([6]; Preemergence, 62 g ai/ha): 45
- Plant response rating, Buckwheat, Wild ([6]; Preemergence, 125 g ai/ha): 45
- Plant response rating, Buckwheat, Wild ([6]; Preemergence, 250 g ai/ha): 60

SMILES: CCOC(=O)Cc1nc(C2CC2)nc(N=CN(C)C)c1Br [Compound 33]
- Plant response rating, Kochia (kochia (Kochia scoparia); Postemergence, 62 g ai/ha): 50
- Plant response rating, Kochia (kochia (Kochia scoparia); Postemergence, 125 g ai/ha): 50
- Plant response rating, Kochia (kochia (Kochia scoparia); Postemergence, 250 g ai/ha): 50
- Plant response rating, Kochia (kochia (Kochia scoparia); Preemergence, 62 g ai/ha): 60
- Plant response rating, Kochia (kochia (Kochia scoparia); Preemergence, 125 g ai/ha): 65
- Plant response rating, Kochia (kochia (Kochia scoparia); Preemergence, 250 g ai/ha): 65
- Plant response rating, Pigweed ([3]; Postemergence, 62 g ai/ha): 45
- Plant response rating, Pigweed ([3]; Postemergence, 125 g ai/ha): 55
- Plant response rating, Pigweed ([3]; Postemergence, 250 g ai/ha): 55
- Plant response rating, Pigweed ([3]; Preemergence, 62 g ai/ha): 60
- Plant response rating, Pigweed ([3]; Preemergence, 125 g ai/ha): 70
- Plant response rating, Pigweed ([3]; Preemergence, 250 g ai/ha): 90
- Plant response rating, Wheat ([4]; Postemergence, 62 g ai/ha): 35
- Plant response rating, Wheat ([4]; Postemergence, 125 g ai/ha): 40
- Plant response rating, Wheat ([4]; Postemergence, 250 g ai/ha): 45
- Plant response rating, Wheat ([4]; Preemergence, 62 g ai/ha): 15
- Plant response rating, Wheat ([4]; Preemergence, 125 g ai/ha): 35
- Plant response rating, Wheat ([4]; Preemergence, 250 g ai/ha): 55
- Plant response rating, Lambsquarters ([5]; Postemergence, 62 g ai/ha): 30
- Plant response rating, Lambsquarters ([5]; Postemergence, 125 g ai/ha): 30
- Plant response rating, Lambsquarters ([5]; Postemergence, 250 g ai/ha): 45
- Plant response rating, Lambsquarters ([5]; Preemergence, 62 g ai/ha): 60
- Plant response rating, Lambsquarters ([5]; Preemergence, 125 g ai/ha): 65
- Plant response rating, Lambsquarters ([5]; Preemergence, 250 g ai/ha): 65
- Plant response rating, Buckwheat, Wild ([6]; Postemergence, 62 g ai/ha): 40
- Plant response rating, Buckwheat, Wild ([6]; Postemergence, 125 g ai/ha): 50
- Plant response rating, Buckwheat, Wild ([6]; Postemergence, 250 g ai/ha): 55
- Plant response rating, Buckwheat, Wild ([6]; Preemergence, 62 g ai/ha): 55
- Plant response rating, Buckwheat, Wild ([6]; Preemergence, 125 g ai/ha): 65
- Plant response rating, Buckwheat, Wild ([6]; Preemergence, 250 g ai/ha): 65
